Each compound was assayed on ALOMY (blackgrass) (assay: Post-emergence herbicidal activity, cool season). Conditions: abraded plants sprayed at 300, 100, 30 and 10 g/ha; about 14 days after treatment.
Type: in vivo, Alopecurus myosuroides
Description: (§1) In another set of tests, the post-emergence activity of compounds of this invention was evaluated on the cool season species listed above. The following procedure was used.
(§2) A pre-prepared topsoil mixture (described above) was placed in a pot and compacted to a depth of 1.0 to 1.25 cm from the top of the pot. Seeds of each of several monocotyledonous and dicotyledonous annual plant species were placed on top of the soil. The seeds were covered with a mixture of 50% topsoil and 50% Rediearth™ in sufficient quantity to level-fill the pots. The pots were then placed on a greenhouse bench and subirrigated as needed.
(§3) When plants growing from the seeds had emerged and reached a suitable growth stage for post-emergence treatment, typically 9 to 14 days after planting, above-ground parts of the plants were subjected to a pre-treatment involving abrasion to create greater opportunity for foliar uptake of subsequently applied compounds. Abrasion was performed using garnet 200w particles applied with a Sears Craftsman hand-held sandblaster operated at approximately 850 kPa (50 psig) pressure.
(§4) A known amount of each test compound dissolved or suspended in an appropriate organic solvent was diluted with a 50:50 mix of acetone and water and applied to the plants by spraying with a standard spray nozzle in a spray volume of […] at a spray pressure of 511 kPa (30 psig). Only the compounds of Examples 1, 8-15 and 17-22 were included in post-emergence tests. Application rates for these compounds were 300, 100, 30 and 10 g/ha. Control plants were abraded but not sprayed.
(§5) After treatment the plants were placed in a greenhouse with an 18/13° C. day/night temperature regime and were subsequently watered as needed for growth. Approximately 14 days after treatment, the plants were observed and herbicidal efficacy recorded as percent inhibition by comparison with control plants. GR80 values were assigned for each compound as described above for the pre-emergence tests.
C=C(Br)CC(F)(F)S(=O)(=O)c1ncn(C(=O)N(CC)CC)n1 [Example 19] was tested, and the “Post-emergence activity GR80, ALOMY” value was “[empty]”.

The compounds below were run on SETFA (giant foxtail) (assay: Pre-plant incorporated (PPI) herbicidal activity, warm season). Conditions: Setaria faberi; PPI application, 10 g/ha; read-out: Percent inhibition SETFA.
Type: in vivo, Setaria faberi
Description: (§6) In another set of tests, the pre-plant incorporated (PPI) activity of compounds of this invention was evaluated on the same species as for the pre-emergence tests described above. In the PPI tests the following procedure, designed to simulate PPI application, was used.
(§7) A pre-prepared topsoil mixture (described above) was placed in a pot and compacted to a depth of 1.0 to 1.25 cm from the top of the pot. Seeds of each of several monocotyledonous and dicotyledonous annual plant species were placed on top of the soil. A sufficient quantity of soil to cover the seeds and level fill the pot was weighed into an open container. A known amount of the test compound was dissolved or suspended in an organic solvent and applied by spraying to this cover soil. The cover soil was thoroughly mixed to distribute the test compound throughout the cover soil, and was then applied as a cover layer over the seeds. Untreated soil was used as a cover layer for control pots. After treatment the plants were placed in a greenhouse where they received 0.64 cm of overhead irrigation. All subsequent watering consisted of a light overhead mist and/or subirrigation as needed for germination and growth. Tables 9 and 10 below relate to warm season plant species which were placed after pre-emergence treatment in a greenhouse with a 30/21° C. day/night temperature regime. Tables 11 and 12 below relates to cool season plant species placed after pre-emergence treatment in a greenhouse or growth chamber with an 18/13° C. day/night temperature regime. Only the compounds of Examples 1, 6, 8, 11, 13 and 15-20 were included in PPI tests.
(§8) Approximately 14 days after planting and treating, the plants were observed and herbicidal efficacy recorded as percent inhibition by comparison with untreated plants.
C=C(Br)CC(F)(F)S(=O)(=O)c1ncn(C(=O)N(CC)CC)n1 [Example 19] showed an inhibition at 10 g/ha of 90%.

Same assay, conditions: Setaria faberi; PPI application, 30 g/ha; read-out: Percent inhibition SETFA
With C=C(Br)CC(F)(F)S(=O)(=O)c1ncn(C(=O)N(CC)CC)n1 [Example 19] the inhibition at 30 g/ha was 100%.

Same assay, conditions: Setaria faberi; PPI application, 100 g/ha; read-out: Percent inhibition SETFA
C=C(Br)CC(F)(F)S(=O)(=O)c1ncn(C(=O)N(CC)CC)n1 [Example 19] was tested, and the inhibition at 100 g/ha was 90%.

Same assay, conditions: Setaria faberi; PPI application, 300 g/ha; read-out: Percent inhibition SETFA
In the case of C=C(Br)CC(F)(F)S(=O)(=O)c1ncn(C(=O)N(CC)CC)n1 [Example 19], the inhibition at 300 g/ha is reported as 100%.

Same assay, conditions: Setaria faberi; PPI application, 900 g/ha; read-out: Percent inhibition SETFA
C=C(Br)CC(F)(F)S(=O)(=O)c1ncn(C(=O)N(CC)CC)n1 [Example 19] gave an inhibition at 900 g/ha of 100%.

Same assay, conditions: pre-plant incorporated; lowest tested rate with 80% or greater inhibition; about 14 days
In the case of C=C(Br)CC(F)(F)S(=O)(=O)c1ncn(C(=O)N(CC)CC)n1 [Example 19], the “PPI activity GR80, SETFA” value is reported as 30 g/ha.

These compounds were tested on BROTE (downy brome) (assay: Pre-plant incorporated (PPI) herbicidal activity, cool season). Conditions: Bromus tectorum; weed, PPI application, 10 g/ha; read-out: Percent inhibition BROTE.
Type: in vivo, Bromus tectorum
Description: as §6, §7, §8
C=C(Br)CC(F)(F)S(=O)(=O)c1ncn(C(=O)N(CC)CC)n1 [Example 19] showed an inhibition at 10 g/ha of 0%.

Same assay, conditions: Bromus tectorum; weed, PPI application, 30 g/ha; read-out: Percent inhibition BROTE
C=C(Br)CC(F)(F)S(=O)(=O)c1ncn(C(=O)N(CC)CC)n1 [Example 19] was tested, and the inhibition at 30 g/ha was 20%.

Same assay, conditions: Bromus tectorum; weed, PPI application, 100 g/ha; read-out: Percent inhibition BROTE
C=C(Br)CC(F)(F)S(=O)(=O)c1ncn(C(=O)N(CC)CC)n1 [Example 19] showed an inhibition at 100 g/ha of 20%.

Same assay, conditions: Bromus tectorum; weed, PPI application, 300 g/ha; read-out: Percent inhibition BROTE
With C=C(Br)CC(F)(F)S(=O)(=O)c1ncn(C(=O)N(CC)CC)n1 [Example 19] the inhibition at 300 g/ha was 60%.

Same assay, conditions: Bromus tectorum; weed, PPI application, 900 g/ha; read-out: Percent inhibition BROTE
C=C(Br)CC(F)(F)S(=O)(=O)c1ncn(C(=O)N(CC)CC)n1 [Example 19] was tested, and the inhibition at 900 g/ha was 95%.

Same assay, conditions: pre-plant incorporated; lowest tested rate with 80% or greater inhibition; about 14 days
In the case of C=C(Br)CC(F)(F)S(=O)(=O)c1ncn(C(=O)N(CC)CC)n1 [Example 19], the “PPI activity GR80, BROTE” value is reported as 300 g/ha.

What follows are compounds tested on BROTE (downy brome) (assay: Post-emergence herbicidal activity, cool season). Conditions: abraded plants sprayed at 300, 100, 30 and 10 g/ha; about 14 days after treatment.
Type: in vivo, Bromus tectorum
Description: as §1, §2, §3, §4, §5
In the case of C=C(Br)CC(F)(F)S(=O)(=O)c1ncn(C(=O)N(CC)CC)n1 [Example 19], the “Post-emergence activity GR80, BROTE” value is reported as “[empty]”.

Each compound was assayed on SETVI (green foxtail) (assay: Pre-plant incorporated (PPI) herbicidal activity, cool season). Conditions: Setaria viridis; weed, PPI application, 10 g/ha; read-out: Percent inhibition SETVI.
Type: in vivo, Setaria viridis
Description: as §6, §7, §8
Compound C=C(Br)CC(F)(F)S(=O)(=O)c1ncn(C(=O)N(CC)CC)n1 [Example 19] has an inhibition at 10 g/ha of 50%.

Same assay, conditions: Setaria viridis; weed, PPI application, 30 g/ha; read-out: Percent inhibition SETVI
C=C(Br)CC(F)(F)S(=O)(=O)c1ncn(C(=O)N(CC)CC)n1 [Example 19] was tested, and the inhibition at 30 g/ha was 60%.

Same assay, conditions: Setaria viridis; weed, PPI application, 100 g/ha; read-out: Percent inhibition SETVI
C=C(Br)CC(F)(F)S(=O)(=O)c1ncn(C(=O)N(CC)CC)n1 [Example 19] showed an inhibition at 100 g/ha of 100%.

Same assay, conditions: Setaria viridis; weed, PPI application, 300 g/ha; read-out: Percent inhibition SETVI
C=C(Br)CC(F)(F)S(=O)(=O)c1ncn(C(=O)N(CC)CC)n1 [Example 19] was tested, and the inhibition at 300 g/ha was 100%.

Same assay, conditions: Setaria viridis; weed, PPI application, 900 g/ha; read-out: Percent inhibition SETVI
With C=C(Br)CC(F)(F)S(=O)(=O)c1ncn(C(=O)N(CC)CC)n1 [Example 19] the inhibition at 900 g/ha was 100%.

Same assay, conditions: pre-plant incorporated; lowest tested rate with 80% or greater inhibition; about 14 days
With C=C(Br)CC(F)(F)S(=O)(=O)c1ncn(C(=O)N(CC)CC)n1 [Example 19] the “PPI activity GR80, SETVI” value was 30 g/ha.

What follows are compounds tested on STEME (common chickweed) in the same assay as above. Conditions: pre-plant incorporated; lowest tested rate with 80% or greater inhibition; about 14 days.
Type: in vivo, Stellaria media
Description: as §6, §7, §8
With C=C(Br)CC(F)(F)S(=O)(=O)c1ncn(C(=O)N(CC)CC)n1 [Example 19] the “PPI activity GR80, STEME” value was 100 g/ha.
